Laboratory results published in US9358225B2, “Method for treating neurodegeneration using a p38MAPK inhibitor” (Bach Pharma, Inc., priority 2013, dated 2016).

Test system: Atm−/− mice
Assay: Modified rotarod behavioral test
Type: in vivo, mouse
Conditions: P90, after treatment, vs PBS-treated Atm−/− and Atm+/+
Excerpt: The Atm−/− mice were originally generated by Dr. C. Barlow (Barlow et al., 1996). They were purchased from the Jackson Laboratory (Bar Harbor, Me.). Offspring of Atm+/− breeders were genotyped using real-time polymerase chain reaction-based assays of mouse tail DNA. Atm mice (1-month old) were divided into 3 groups: PBS-treated Atm+/+ mice (n=10/group); PBS-treated Atm−/− mice (n=9/group); and SB203580 (4-[5-(4-Fluorophenyl)-2-[4-(methylsulphonyl)phenyl]-1H-imidazol-4-yl]pyridine) treated Atm−/− mice (n=10/group). Mice were intraperitoneally injected with either PBS or SB203580 (4-[5-(4-Fluorophenyl)-2-[4-(methylsulphonyl)phenyl]-1H-imidazol-4-yl]pyridine) (5 mg/kg body weight) at 2-day intervals for 2 months. Animals were sacrificed one day after the last administration. Animal care was in accordance with The University of Texas MD Anderson Cancer Center guidelines for animal experiments.
We have devised a modified version of the standardized rotarod protocol (Columbus Instruments, Columbus, Ohio). […] Following training, three trials of mouse motor coordination were assessed by measuring the time before falling off the rotarod moving at 25 rpm.
Each experiment, including behavioral test, body weight measure and qRT-PCR was repeated at least three times. The proportion of mRNA expression was analyzed from a series of tissue sections. […]

Row | SMILES | rotarod performance (time before falling off at 25 rpm)
1 | CC1(C)c2ccc(C(=O)O)cc2C(C)(C)N1[O] [CTMIO, 5-carboxy-1,1,3,3-tetramethylisoindolin-2-yloxyl] | stayed on the rod as long as did Atm+/+ mice
2 | CC(=O)N[C@@H](CS)C(=O)O [NAC, N-acetyl-L-cysteine] | stayed on the rod as long as did Atm+/+ mice
